Experimental data published in BigSolDB 2.1.

CC[C@H](C)[C@H]1O[C@]2(C=C[C@@H]1C)C[C@@H]1C[C@@H](C/C=C(\C)[C@@H](O[C@H]3C[C@H](OC)[C@@H](O[C@H]4C[C@H](OC)[C@@H](O)[C@H](C)O4)[C@H](C)O3)[C@@H](C)/C=C/C=C3\CO[C@@H]4[C@H](O)C(C)=C[C@@H](C(=O)O1)[C@]34O)O2
solubility (mole fraction)
Conditions | 283.15 K | 288.15 K | 293.15 K | 298.15 K | 303.15 K | 308.15 K | 313.15 K
in acetone | 0.00916 | 0.0104 | 0.0119 | 0.0134 | 0.0151 | 0.0175 | 0.0194
in isopropanol | 0.00481 | 0.00589 | 0.0071 | 0.00804 | 0.0096 | 0.0113 | 0.0137
